Measurements as given in US9549911B2, “Ginger metabolites and uses thereof” (North Carolina A&T State University, priority 2012, dated 2017).

Tests used:
in vitro [1] = type: cell-based, human; details: human
Description: (§1) Growth inhibition of human cancer and normal cells. Cell growth inhibition was determined by a MTT colorimetric assay. Human colon cancer cells HCT-116, human lung cancer cells H-1299, human colon fibroblast cells CCD-18Co, and human lung fibroblast cells IMR-90 were plated in 96-well microtiter plates with 3000 cells/well and allowed to attach for 24 h at 37° C. […] After the cells were cultured for 48 h, the medium was aspirated and cells were treated with 200 μL fresh medium containing 2.41 mmol/L MTT. […] The reading reflected the number of viable cells and was expressed as a percentage of viable cells in the control. Both HCT-116 and H-1299 cells were cultured in McCoy's 5A medium. CCD-18Co and IMR-90 cells were cultured in Eagle's modified essential medium (EMEM). All of the above media were supplemented with 10% fetal bovine serum, 1% penicillin/streptomycin, and 1% glutamine, and the cells were kept in a 37° C. incubator with 95% humidity and 5% CO2.

[2] = Kinetic study of [6]-shogaol metabolism to M6 in liver microsomes; type: in vitro ADME, mouse; details: mouse
Description: (§2) All incubations were performed in triplicate.

HCT-116 cells [3] = assay: TUNEL apoptosis assay (Part 2); type: cell-based, human; details: HCT-116, 20 or 40 μM, 24 hours
Description: (§3) HCT-116 and H1299 cells were seeded in 6-well plates at 1×10^5 cells/well and incubated at 37° C. in 5% CO2 incubator. After 24 hours, fresh media supplemented with DMSO (control), [6]-shogaol, M2, M6, or M13 metabolites (20 μM or 40 μM) were added to the wells. After 6 or 24 hours incubation at 37° C. in 5% CO2 incubator, cells were washed and pre-treated for 15 min at room temperature with a solution of 20 μg/ml proteinase K. Cells were then washed twice with phosphate buffer saline pH 7.4 (PBS) and fixed for 10 min at room temperature using 10% neutral formaldehyde solution. After 2 washes in ddH2O, cells were resuspended in 100 μL ddH2O and applied on silanized microscope slides. Slides were incubated overnight at 37° C., and washed twice with PBS. TUNEL assay was then carried out according to the manufacturer's protocol. Cells were observed under 400× power using a Zeiss microscope A1 (Thornwood, N.Y.). 10 fields per slide were evaluated, and TUNEL+ cells (with brown coloration in the nucleus) were expressed as a percentage of the total number of cells contained in a field.

H-1299 cells = assay: TUNEL apoptosis assay (Part 2); type: cell-based, human; details: H-1299, 20 or 40 μM, 24 hours
Description: as §3

[4] = Kinetic study of [6]-shogaol metabolism to M6 in liver microsomes; type: in vitro ADME, monkey; details: cynomolgus, monkey
Description: as §2

[5] = system: human lung cancer cells H-1299; assay: MTT growth inhibition of human cancer and normal cells (Part 2); type: cell-based; details: Homo sapiens, NCI-H1299; H-1299, 48 h, 0 to 80 μM
Description: as §1

[6] = system: human colon cancer cells HCT-116; assay: as above; type: cell-based; details: Homo sapiens; HCT-116, 48 h, 0 to 80 μM
Description: as §1

[7] = Kinetic study of [6]-shogaol metabolism to M6 in liver microsomes; type: in vitro ADME; details: dog liver microsomes 0.1 mg/mL, 30 min
Description: as §2

in vitro [8] = type: cell-based, human; details: human; remark: listed apart in the source
Description: as §1

[9] = Kinetic study of [6]-shogaol metabolism to M6 in liver microsomes; details: human
Description: To estimate kinetic parameters of metabolism of [6]-shogoal to major product M6 in liver microsomes from human and other species, the incubation conditions were optimized to ensure that formation rate of M6 was in the linear range in relation to incubation time and protein concentration. [6]-Shogaol (7.81, 15.63, 31.25, 62.5, 125, 250, 500, 1000, and 2000 μM) was incubated with liver microsomes from mouse (MLM), rat (RLM), dog (DLM), monkey (CyLM), and human (HLM) (0.1 mg/mL each, respectively) for 30 minutes. All incubations were performed in triplicate. The apparent Km and Vmax values were calculated from analysis of experimental data according to the Michaelis-Menten equation, and the results were graphically represented (for HLM) by an Eadie-Hofstee plot. Kinetic constants were reported as the value+/−S.E. of the parameter estimate.

[10] = as above; type: in vitro ADME, rat; details: rat
Description: as §2

[11] = system: human lung cancer cells H-1299; assay: Cell Death Detection ELISA apoptosis induction (Part 3); type: cell-based; details: 24 hours
Description: (§4) Human colon cancer cells HCT-116 and human lung cancer cells H-1299 were plated in 96-well plates at a density of 5000 cells/well and allowed to attach overnight at 37° C. M14, M15, or [6]-shogaol in DMSO, or DMSO control, diluted in media, were added to cells and incubated for an additional 24 hours at 37° C. After 24 hours, media containing compound was removed and cells were lysed in their respective wells with reagents from a Cell Death Detection ELISA^PLUS kit from Roche Applied Science (Mannheim, Germany). Samples were harvested after cell lysates were spun down at 300 g for 10 minutes. To streptavidin coated microplates, 20 μL samples were added, and mixed with 80 μL Immunoreagent, which consisted of anti-histone-biotin, and anti-DNA-POD, and incubated with gentle shaking for 2 hours at room temperature. After incubation, Immunoreagent was removed and samples were washed 3 times with 250 μL incubation buffer. Substrate solution, ABTS, was added to each well and color was developed for 15 minutes before stopping the reaction with ABTS stop solution and reading absorbance on a microplate reader at 430 nm. Experiments were performed in triplicate and the average is given in comparison to DMSO control with standard deviation.

[12] = system: human colon cancer cells HCT-116; assay: as above; type: cell-based; details: 24 hours
Description: as §4

[13] = system: human lung cancer cells H-1299; assay: MTT growth inhibition by M14 and M15 (Part 3); type: cell-based; details: Homo sapiens, NCI-H1299; H-1299, 24 hours, 0 to 80 μM; read-out: IC50 (cell viability, MTT)
Description: (§5) Cell growth inhibition was determined by a MTT colorimetric assay. […] The reading reflected the number of viable cells and was expressed as a percentage of viable cells in the control. Both HCT-116 and H-1299 cells were cultured in McCoy's 5A medium. All of the above media were supplemented with 10% fetal bovine serum, 1% penicillin/streptomycin, and 1% glutamine, and the cells were kept in a 37° C. incubator with 95% humidity and 5% CO2.

[14] = system: human colon cancer cells HCT-116; assay: MTT growth inhibition by M14 and M15 (Part 3); type: cell-based; details: Homo sapiens; HCT-116, 24 hours, 0 to 80 μM; read-out: IC50 (cell viability, MTT)
Description: as §5

A549 lung cancer cells = details: 6S 30 mg/kg, M2 30 mg/kg, M14 10 mg/kg, oral gavage 5×/week, 7 weeks
Description: Nu/J nude mice were obtained from Jackson Laboratories (Bar Harbor, Me.). Animals were randomized into 4 groups. A549 cells (5×10^6 cells) were implanted in both flanks of 8-weeks old Nu/J mice. One week after implantation, animals were given 100 μl of the following treatments through oral gavage 5 times/week: DMSO 0.25 ml/kg (control; n=4); 6S 10 mg/kg (n=4); 6S 30 mg/kg (n=4) or M2 30 mg/kg (n=5). Compounds were diluted in a solution of 5% DMSO in corn oil. Animal body weight and tumor volume were recorded for the duration of the experiment. Tumor volume was calculated by measuring the length and width of the tumors using a digital caliper and using the formula (Length×Width^2)/2. One hour before sacrifice, mice were given one last treatment dose as well as one intra-peritoneal injection of BrdU (7.5 mg/kg in 100 μl PBS). After 7 weeks, tumor tissues were harvested and weighed. A portion of the tumors was snap frozen in liquid nitrogen and another portion was placed in a histology cassette and immersed in formalin solution.
[…] tissues were sent to Precision Histology Lab (Oklahoma City, Okla.) for embedding in paraffin blocks. Then paraffin blocks were processed into 3-4 μm sections that were then put on microscope slides. Sections were then deparaffinized by using a succession of 3 baths of xylene (5 minutes each), 2 baths of absolute ethanol (5 minutes each), 95% ethanol for 3 minutes, 70% ethanol for 3 minutes, and rinsed in PBS. Immunostaining with TUNEL (terminal deoxynucleotidyl transferase dUTP nick end labeling) and BrdU staining kits was performed following manufacturer's recommendation. For staining quantification, sequential high-power field pictures of tumors were taken (10 pictures per tumor) using an A1 Zeiss microscope (Oberkochen, Germany). Images were processed using the Image J software, which was used to count positive, brown-colored cells in each field. Average number per tumor was calculated by averaging the number obtained for each field, and the average number of positive cells per group was obtained by averaging the values of each tumor belonging to the experimental group.
8 week-old nude mice (Jackson Laboratory, Maine) were randomized into 5 groups based on treatment (DMSO: n=4; 6S 10 mg/kg: n=4 (“6S 10”); 6S 30 mg/kg: n=4 (“6S 30”); M2 30 mg/kg: n=5 (“M2 30”); M14 10 mg/kg: n=4 (“M14 10”)). Animals were implanted with 5×10^6 A549 lung cancer cells (adenocarcinomic human alveolar basal epithelial cells) on each flank. The mice had access to food and water ad libitum. One week post implantation, the animals started receiving their respecting treatments through oral gavage (100 μl in corn oil and 5% DMSO), 5×/week. After 7 weeks of treatment, the tumor tissues were harvested.

HT-29 cells = assay: Western blot analysis of apoptosis markers and p53 (Part 5); type: cell-based, human; details: HT-29 (p53 mutant), 24 hours; M2, 6S 10, 20 or 40 μM; 8S, M2′, 10S, M2″ 20 μM
Description: (§6) Cell lysates were prepared in ice-cold RIPA lysis buffer [25 mM Tris-HCl (pH 7.6), 150 mM NaCl, 1% NP-40, 1% sodium deoxycholate, 0.1% SDS, Thermo Fisher Scientific] supplemented with a protease inhibitor cocktail (AEBSF, aprotinin, bestatin, E-64, leupeptin and pepstatin A in DMSO with EDTA, Thermo Fisher Scientific). Protein content was measured by a Pierce BCA Assay Kit (Thermo Fisher Scientific). Protein contents of cell lysates (30 μg protein/lane) were resolved by SDS-PAGE. Proteins were then electro-transferred onto PVDF membranes and blots were blocked for one hour at room temperature in 1×TBS with 1% Casein (Bio-Rad Laboratories, Berkeley, Calif.). Blots were then incubated overnight at 4° C. with the desired primary antibody diluted in TBS with 0.5% Tween-20. Blots were then washed with TBS-Tween 20 and probed for 1 hour with the appropriate secondary antibody (1:1000). Protein bands were visualized with chemiluminescence using West Femto maximum detection substrate (Thermo Fisher Scientific). To confirm equal protein loading in each lane, immunoblots were stripped and re-probed for β-actin. Protein fold-induction was calculated by normalizing the intensity of the band of interest to β-actin first, and then to DMSO control lanes.

HCT-116 cells [15] = assay: as above; type: cell-based, human; details: HCT-116 (p53 wild-type), 24 hours; M2, 6S 10, 20 or 40 μM; 8S, M2′, 10S, M2″ 20 μM
Description: as §6

[16] = system: human colon cancer cells HCT-116; assay: MTT toxicity in colon cancer and normal colon cells (Part 5); type: cell-based; details: HCT-116, 24 hours
Description: as §5, with “Cell viability” for “Cell growth inhibition”, “by an” for “by a”, “control. CCD-18Co cells were grown in EMEM.” for “control.”, “and HT-29” for “and H-1299”

[17] = system: human colon cancer cells HT-29; assay: as above; type: cell-based; details: HT-29 (p53 mutant), 24 hours
Description: as §5, with “Cell viability” for “Cell growth inhibition”, “by an” for “by a”, “control. CCD-18Co cells were grown in EMEM.” for “control.”, “and HT-29” for “and H-1299”

[18] = system: human colon fibroblast cells CCD-18Co; assay: as above; type: cell-based; details: normal colon cells CCD-18Co, 24 hours
Description: as §5, with “Cell viability” for “Cell growth inhibition”, “by an” for “by a”, “control. CCD-18Co cells were grown in EMEM.” for “control.”, “and HT-29” for “and H-1299”

Structure (SMILES)	induction of apoptosis compared to DMSO control ([11]; H-1299, 10 μM)	induction of apoptosis compared to DMSO control ([12]; HCT-116, 10 μM)	IC50 [13] [µM]	IC50 [14] [µM]	p53 expression (Western blot) (HT-29 cells)	p53 expression (Western blot) (HCT-116 cells [15])	IC50 [16] [µM]	IC50 [17] [µM]	IC50 [18] [µM]	further results
CCCCCC=CC(O)CCc1ccc(O)c(OC)c1 (centres unmarked) [M6, 1-(4′-hydroxy-3′-methoxyphenyl)-4-decen-3-ol]										IC50 at 48 h (in vitro [1]): > 100 µM; Vmax of M6 formation [2]: 4.10 +/− 0.19 nanomoles per minute per milligram liver microsomes; induction of apoptosis (TUNEL) versus DMSO (HCT-116 cells [3]): did not display any apoptotic effect; induction of apoptosis (TUNEL) versus DMSO (H-1299 cells): did not display any apoptotic effect; Vmax of M6 formation [4]: 2.99 +/− 0.28 nanomoles per minute per milligram liver microsomes; IC50 [5]: 61.3 µM; IC50 [6]: 68.8 µM; Vmax of M6 formation [7]: 7.33 +/− 0.43 nanomoles per minute per milligram liver microsomes; IC50 at 48 h (in vitro [8]): > 100 µM; Vmax of M6 formation [9]: 10.82 +/− 0.47 nanomoles per minute per milligram liver microsomes; Vmax of M6 formation [10]: 8.19 +/− 0.48 nanomoles per minute per milligram liver microsomes
CCCCC/C=C/C(=O)/C=C/c1ccc(O)c(OC)c1 [M14, (1E, 4E)-1-(4′-hydroxy-3′-methoxyphenyl)-deca-1,4-dien-3-one]	7-8 fold	about 6 fold	3.04	3.22						induction of apoptosis compared to DMSO control ([11]; H-1299, 1 μM): 1 fold; induction of apoptosis compared to DMSO control ([12]; HCT-116, 1 μM): 2 fold; tumor size versus control group (A549 lung cancer cells): Reduction in tumor size
CCCCCCC/C=C/C(=O)CCc1ccc(O)c(OC)c1 [8S, [8]-shogaol, reference compound]					increase in p53 accumulation	increase in p53 accumulation	22.8	27.9	105	
CCCCCCCCC/C=C/C(=O)CCc1ccc(O)c(OC)c1 [10S, [10]-shogaol, reference compound]					increase in p53 accumulation	increase in p53 accumulation	25.1	23.9	136	
CCCCCCCC(=O)/C=C/c1ccc(O)c(OC)c1 [M15, (E)-1-(4′-hydroxy-3′-methoxyphenyl)-dec-1-en-3-one]	~2 fold	1 fold	41.6	43						
